Laboratory results: ChEMBL document CHEMBL6134890, “Terminally Symmetric β-Turn Peptides for Multidrug-Resistant Bacterial Infections” (J Med Chem, 2025)
In brackets after ≈: the same amount, converted by molar mass. Activity calls are given as the source filed them. No cut-off for these calls is given here. Bridge positions count the residues as written; N and C are the ends. Square brackets hold non-standard residues; d marks the D form. Peptide text beside a SMILES is read from it. * marks the point of attachment. X1 = CC[C@H](C)CCCCC(=O)*; dDab = NCC[C@@H](N)C(=O)O; Dab = NCC[C@H](N)C(=O)O

Key:
Staphylococcus aureus [1] = assay: Antimicrobial activity against multi-drug resistant Staphylococcus aureus assessed as reduction in bacterial growth by broth dilution method; type: functional
[2] = Hemolytic activity in human Red blood cell assessed as hemolysis incubated for 1 hrs by microplate reader based analysis; type: toxicity; conditions: erythrocyte
HEK-293T [3] = assay: Cytotoxicity against HEK293T cells at 2 to 256 uM measured after 24 hrs by CCK-8 method; type: toxicity, cell-based; conditions: human, dose 2-256 µM
BEAS-2B = assay: Cytotoxicity against human BEAS-2B cells at 2 to 256 uM measured after 24 hrs by CCK-8 method; type: toxicity, cell-based; conditions: dose 2-256 µM
Escherichia coli [4] = assay: Antimicrobial activity against Escherichia coli ATCC 25922 assessed as reduction in bacterial growth by broth dilution method; type: functional
Escherichia coli [5] = assay: Antimicrobial activity against multi-drug resistant Escherichia coli assessed as reduction in bacterial growth by broth dilution method; type: functional
Staphylococcus aureus [6] = assay: Antimicrobial activity against Staphylococcus aureus ATCC 25923 assessed as reduction in bacterial growth by broth dilution method; type: functional
L02 [7] = assay: Cytotoxicity against human LO2 cells at 2 to 256 uM measured after 24 hrs by CCK-8 method; type: toxicity, cell-based; conditions: l02, 24 h, dose 2-256 µM
Klebsiella pneumoniae = assay: Antimicrobial activity against multi-drug resistant Klebsiella pneumoniae assessed as reduction in bacterial growth by broth dilution method; type: functional
Acinetobacter baumannii = assay: Antimicrobial activity against multi-drug resistant Acinetobacter baumannii assessed as reduction in bacterial growth by broth dilution method; type: functional
Enterococcus faecalis = assay: Antimicrobial activity against multi-drug resistant Enterococcus faecalis assessed as reduction in bacterial growth by broth dilution method; type: functional
[8] = system: Staphylococcus epidermidis; assay: Antimicrobial activity against multi-drug resistant Staphylococcus epidermidis assessed as reduction in bacterial growth by broth dilution method; type: functional
L02 [9] = assay: Cytotoxicity against human LO2 cells at 256 uM measured after 24 hrs by CCK-8 method relative to control; type: toxicity, cell-based; conditions: l02, 24 h
HEK-293T [10] = assay: Cytotoxicity against HEK293T cells at 256 uM measured after 24 hrs by CCK-8 method relative to control; type: toxicity, cell-based; conditions: human
Cell membrane [11] = assay: Induction of outer membrane permeabilization in multi-drug resistant Escherichia coli assessed as NPN uptake at 1 to 4 times MIC measured within 1 min by fluorescence based analysis; type: subcellular
Cell membrane [12] = assay: Induction of cytoplasmic membrane depolarization in multi-drug resistant Staphylococcus aureus at 1 to 4 times MIC measured within 1 min by DiSC3-5 fluorescent dye based analysis
Escherichia coli [13] = assay: Antibacterial activity against Escherichia coli […] at sub-inhibitory concentration measured after 7 passages for 18 hrs; type: functional, organism-based
Escherichia coli [14] = assay: Bactericidal activity against multi-drug resistant Escherichia coli at 1 times MIC preincubated with LPS for 1 hrs followed by bacterial addition and measured after 18 hrs by microplate reader based analysis; type: functional, organism-based; conditions: time 19.0 hrs
Staphylococcus aureus [15] = assay: Antibacterial activity against Staphylococcus aureus ATCC 25923 at sub-inhibitory concentration measured after 7 passages for 18 hrs; type: functional, organism-based
Cell membrane [16] = assay: Induction of cytoplasmic membrane depolarization in multi-drug resistant Escherichia coli at 1 to 4 times MIC measured within 1 min by DiSC3-5 fluorescent dye based analysis
Escherichia coli [17] = assay: Drug resistance, ratio of MIC for Escherichia coli ATCC 25922 after 15 passages exposure to MIC for Escherichia coli ATCC 25922 after first exposure; type: functional
Staphylococcus aureus [18] = assay: Drug resistance, ratio of MIC for Staphylococcus aureus ATCC 25923 after 15 passages exposure to MIC for Staphylococcus aureus ATCC 25923 after first exposure; type: functional
Escherichia coli [19] = assay: Antibacterial activity against multidrug resistant Escherichia coli infected in male Kunming mouse model assessed as reduction in epidermal thickening by H and E staining based analysis; type: functional, organism-based
Escherichia coli [20] = assay: Antibacterial activity against multidrug resistant Escherichia coli infected in male Kunming mouse model assessed as reduction in wound size measured after 3 to 5 days by caliper method; type: functional, organism-based; conditions: time 3-5 day
Escherichia coli [21] = assay: Antibacterial activity against multidrug resistant Escherichia coli infected in male Kunming mouse model assessed as wound healing measured after 11 days by caliper method; type: functional, organism-based; conditions: time 11.0 day
Escherichia coli [22] = assay: Antibacterial activity against multidrug resistant Escherichia coli infected in male Kunming mouse model assessed as reduction in IL-6 expression by immunochemical analysis; type: functional, organism-based
Escherichia coli [23] = assay: Antibacterial activity against multidrug resistant Escherichia coli infected in male Kunming mouse model assessed as inflammatory cell infiltration by H and E staining based analysis; type: functional, organism-based
Escherichia coli [24] = assay: Antibacterial activity against Escherichia coli ATCC 25922 infected in male Kunming mouse model assessed as reduction in bacterial load measured after 11 days; type: functional, organism-based; conditions: time 11.0 day
Escherichia coli [25] = assay: Antibacterial activity against multidrug resistant Escherichia coli infected in male Kunming mouse model assessed as scabs thickening measured after 7 days by caliper method; type: functional, organism-based; conditions: time 7.0 day
Escherichia coli [26] = assay: Antibacterial activity against multidrug resistant Escherichia coli infected in male Kunming mouse model assessed as reduction in tissue hemorrhage by H and E staining based analysis; type: functional, organism-based
Escherichia coli [27] = assay: Antibacterial activity against multidrug resistant Escherichia coli infected in male Kunming mouse model assessed as recovery of mouse weight measured after 11 days; type: functional, organism-based; conditions: time 11.0 day

Structure (SMILES)	MIC (Staphylococcus aureus [1]) [µM]	HC10 [2] [µM]	Activity (HEK-293T [3])	Activity (BEAS-2B)	MIC (Escherichia coli [4]) [µM]	MIC (Escherichia coli [5]) [µM]	MIC (Staphylococcus aureus [6]) [µM]	Activity (L02 [7])	MIC (Klebsiella pneumoniae) [µM]	MIC (Acinetobacter baumannii) [µM]	MIC (Enterococcus faecalis) [µM]	MIC [8] [µM]	other results
NCCCC[C@H](NC(=O)[C@H](Cc1ccccc1)NC(=O)[C@H](CCCCN)NC(=O)[C@H](Cc1ccccc1)NC(=O)[C@H](CCCCN)NC(=O)[C@@H]1CCCN1C(=O)[C@H](Cc1c[nH]c2ccccc12)NC(=O)[C@H](Cc1c[nH]c2ccccc12)NC(=O)[C@H](Cc1c[nH]c2ccccc12)NC(=O)[C@@H]1CCCN1C(=O)[C@H](CCCCN)NC(=O)[C@H](Cc1ccccc1)NC(=O)[C@H](CCCCN)NC(=O)[C@H](Cc1ccccc1)NC(=O)[C@@H](N)CCCCN)C(N)=O (H-KFKFKPWWWPKFKFK-NH2)	4 (≈ 8.51 µg/mL)	> 256	Toxic	Toxic	2 (≈ 4.26 µg/mL)	4 (≈ 8.51 µg/mL)	4 (≈ 8.51 µg/mL)	Toxic	4 (≈ 8.51 µg/mL)	4 (≈ 8.51 µg/mL)	2 (≈ 4.26 µg/mL)	4 (≈ 8.51 µg/mL)	
CN[C@H](CC(C)C)C(=O)N[C@H]1C(=O)N[C@@H](CC(N)=O)C(=O)N[C@H]2C(=O)N[C@H]3C(=O)N[C@H](C(=O)N[C@H](C(=O)O)c4cc(O)cc(O)c4-c4cc3ccc4O)[C@H](O)c3ccc(c(Cl)c3)Oc3cc2cc(c3O[C@@H]2O[C@H](CO)[C@@H](O)[C@H](O)[C@H]2O[C@H]2C[C@](C)(N)[C@H](O)[C@H](C)O2)Oc2ccc(cc2Cl)[C@H]1O [VANCOMYCIN]	1 (≈ 1.45 µg/mL)	> 256			256 (≈ 371 µg/mL)	> 256	1 (≈ 1.45 µg/mL)		> 256	> 256	> 256	2 (≈ 2.9 µg/mL)	Activity (L02 [9]): 75%; Activity (HEK-293T [10]): 75%
CC(C)CCCCC(=O)N[C@@H](CCN)C(=O)N[C@H](C(=O)N[C@@H](CCN)C(=O)N[C@H]1CCNC(=O)[C@H]([C@@H](C)O)NC(=O)[C@H](CCN)NC(=O)[C@H](CCN)NC(=O)[C@H](CC(C)C)NC(=O)[C@@H](Cc2ccccc2)NC(=O)[C@@H](CCN)NC1=O)[C@@H](C)O.CC[C@H](C)CCCCC(=O)N[C@@H](CCN)C(=O)N[C@H](C(=O)N[C@@H](CCN)C(=O)N[C@H]1CCNC(=O)[C@H]([C@@H](C)O)NC(=O)[C@H](CCN)NC(=O)[C@H](CCN)NC(=O)[C@H](CC(C)C)NC(=O)[C@@H](Cc2ccccc2)NC(=O)[C@@H](CCN)NC1=O)[C@@H](C)O (X1-[Dab]T[Dab][Dab][dDab][dF]L[Dab][Dab]T; lactam 4-C)													Activity (Cell membrane [11]): Active; Activity (Cell membrane [12]): inactive; Activity (Escherichia coli [13]): inactive; Activity (Escherichia coli [14]): inactive; Activity (Staphylococcus aureus [15]): inactive; Activity (Cell membrane [16]): Active
CO[C@H]1/C=C/O[C@@]2(C)Oc3c(C)c(O)c4c(O)c(c(/C=N/N5CCN(C)CC5)c(O)c4c3C2=O)NC(=O)/C(C)=C\C=C\[C@H](C)[C@H](O)[C@@H](C)[C@@H](O)[C@@H](C)[C@H](OC(C)=O)[C@@H]1C [RIFAMPIN]	0.5 (≈ 0.411 µg/mL)				8 (≈ 6.58 µg/mL)	64 (≈ 52.7 µg/mL)	0.5 (≈ 0.411 µg/mL)		16 (≈ 13.2 µg/mL)	16 (≈ 13.2 µg/mL)	4 (≈ 3.29 µg/mL)	2 (≈ 1.65 µg/mL)	fold change (FC) (Escherichia coli [17]): 8; fold change (FC) (Staphylococcus aureus [18]): 64
CC1(C)S[C@@H]2[C@H](NC(=O)[C@H](N)c3ccc(O)cc3)C(=O)N2[C@H]1C(=O)O [AMOXICILLIN]	64 (≈ 23.4 µg/mL)				4 (≈ 1.46 µg/mL)	> 256	0.25 (≈ 0.0914 µg/mL)		> 256	128 (≈ 46.8 µg/mL)	64 (≈ 23.4 µg/mL)	128 (≈ 46.8 µg/mL)	fold change (FC) (Escherichia coli [17]): 8; fold change (FC) (Staphylococcus aureus [18]): 64
CC(C)[C@H](NC(=O)[C@H](CCCCN)NC(=O)[C@@H](NC(=O)[C@H](CCCCN)NC(=O)[C@H](Cc1ccccc1)NC(=O)[C@@H]1CCCN1C(=O)[C@H](Cc1c[nH]c2ccccc12)NC(=O)[C@H](Cc1c[nH]c2ccccc12)NC(=O)[C@H](Cc1c[nH]c2ccccc12)NC(=O)[C@@H]1CCCN1C(=O)[C@H](Cc1ccccc1)NC(=O)[C@H](CCCCN)NC(=O)[C@@H](NC(=O)[C@H](CCCCN)NC(=O)[C@@H](NC(=O)[C@@H](N)CCCCN)C(C)C)C(C)C)C(C)C)C(=O)N[C@@H](CCCCN)C(N)=O (H-KVKVKFPWWWPFKVKVK-NH2)	8 (≈ 17.8 µg/mL)	243.97	Toxic	Toxic	4 (≈ 8.92 µg/mL)	4 (≈ 8.92 µg/mL)	8 (≈ 17.8 µg/mL)	Toxic	16 (≈ 35.7 µg/mL)	8 (≈ 17.8 µg/mL)	4 (≈ 8.92 µg/mL)	4 (≈ 8.92 µg/mL)	
C[C@H]1COc2c(N3CCN(C)CC3)c(F)cc3c(=O)c(C(=O)O)cn1c23 [LEVOFLOXACIN ANHYDROUS]	0.25 (≈ 0.0903 µg/mL)				2 (≈ 0.723 µg/mL)	64 (≈ 23.1 µg/mL)	0.25 (≈ 0.0903 µg/mL)		64 (≈ 23.1 µg/mL)	> 256	32 (≈ 11.6 µg/mL)	8 (≈ 2.89 µg/mL)	Activity (Escherichia coli [19]): inactive; Activity (Escherichia coli [20]): Active; Activity (Escherichia coli [21]): inactive; Activity (Escherichia coli [22]): inactive; Activity (Escherichia coli [23]): inactive; Activity (Escherichia coli [24]): Active; Activity (Escherichia coli [25]): Active; Activity (Escherichia coli [26]): inactive; Activity (Escherichia coli [27]): Active
CC(C)CCCCC(=O)N[C@@H](CCN)C(=O)N[C@H](C(=O)N[C@@H](CCN)C(=O)N[C@H]1CCNC(=O)[C@H]([C@@H](C)O)NC(=O)[C@H](CCN)NC(=O)[C@H](CCN)NC(=O)[C@H](CC(C)C)NC(=O)[C@@H](Cc2ccccc2)NC(=O)[C@H](CCN)NC1=O)[C@@H](C)O.CC[C@H](C)CCCCC(=O)N[C@@H](CCN)C(=O)N[C@H](C(=O)N[C@@H](CCN)C(=O)N[C@H]1CCNC(=O)[C@H]([C@@H](C)O)NC(=O)[C@H](CCN)NC(=O)[C@H](CCN)NC(=O)[C@H](CC(C)C)NC(=O)[C@@H](Cc2ccccc2)NC(=O)[C@H](CCN)NC1=O)[C@@H](C)O (X1-[Dab]T[Dab][Dab][Dab][dF]L[Dab][Dab]T; lactam 4-C)		> 256	Non-toxic	Non-toxic				Non-toxic					
CC[C@H](C)[C@H](N)C(=O)N[C@@H](CCCCN)C(=O)N[C@H](C(=O)N[C@@H](CCCCN)C(=O)N[C@@H](Cc1ccccc1)C(=O)N1CCC[C@H]1C(=O)N[C@@H](Cc1c[nH]c2ccccc12)C(=O)N[C@@H](Cc1c[nH]c2ccccc12)C(=O)N[C@@H](Cc1c[nH]c2ccccc12)C(=O)N1CCC[C@H]1C(=O)N[C@@H](Cc1ccccc1)C(=O)N[C@@H](CCCCN)C(=O)N[C@H](C(=O)N[C@@H](CCCCN)C(=O)N[C@H](C(N)=O)[C@@H](C)CC)[C@@H](C)CC)[C@@H](C)CC (H-IKIKFPWWWPFKIKI-NH2)	16 (≈ 32.5 µg/mL)	9.48			16 (≈ 32.5 µg/mL)	32 (≈ 64.9 µg/mL)	16 (≈ 32.5 µg/mL)		256 (≈ 520 µg/mL)	16 (≈ 32.5 µg/mL)	16 (≈ 32.5 µg/mL)	16 (≈ 32.5 µg/mL)	
